One experiment addresses Human β2 adrenoceptor (Homo sapiens, UniProt P07550). The conditions noted are these: read-out: B2 binding affinity.
A further experiment concerns the target Human M3 receptor (Homo sapiens, UniProt P20309). The conditions noted are these: read-out: M3 binding affinity.

Each structure is given as a SMILES string.

The results in this text go back to patent US9579314B2 (priority 2015, dated 2017).

Sequence of Human β2 adrenoceptor (P07550 whole entry): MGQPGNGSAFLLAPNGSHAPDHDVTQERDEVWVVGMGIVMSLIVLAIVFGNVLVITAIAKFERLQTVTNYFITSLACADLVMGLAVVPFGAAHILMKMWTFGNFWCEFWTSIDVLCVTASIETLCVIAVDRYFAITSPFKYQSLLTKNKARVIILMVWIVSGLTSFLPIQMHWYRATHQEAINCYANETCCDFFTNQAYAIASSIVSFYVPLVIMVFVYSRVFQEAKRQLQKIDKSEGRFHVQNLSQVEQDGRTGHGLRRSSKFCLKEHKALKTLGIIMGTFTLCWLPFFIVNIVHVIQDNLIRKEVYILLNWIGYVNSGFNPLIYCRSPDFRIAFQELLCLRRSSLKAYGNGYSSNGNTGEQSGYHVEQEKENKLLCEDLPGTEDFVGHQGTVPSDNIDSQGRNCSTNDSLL
Sequence of Human M3 receptor (P20309 whole entry): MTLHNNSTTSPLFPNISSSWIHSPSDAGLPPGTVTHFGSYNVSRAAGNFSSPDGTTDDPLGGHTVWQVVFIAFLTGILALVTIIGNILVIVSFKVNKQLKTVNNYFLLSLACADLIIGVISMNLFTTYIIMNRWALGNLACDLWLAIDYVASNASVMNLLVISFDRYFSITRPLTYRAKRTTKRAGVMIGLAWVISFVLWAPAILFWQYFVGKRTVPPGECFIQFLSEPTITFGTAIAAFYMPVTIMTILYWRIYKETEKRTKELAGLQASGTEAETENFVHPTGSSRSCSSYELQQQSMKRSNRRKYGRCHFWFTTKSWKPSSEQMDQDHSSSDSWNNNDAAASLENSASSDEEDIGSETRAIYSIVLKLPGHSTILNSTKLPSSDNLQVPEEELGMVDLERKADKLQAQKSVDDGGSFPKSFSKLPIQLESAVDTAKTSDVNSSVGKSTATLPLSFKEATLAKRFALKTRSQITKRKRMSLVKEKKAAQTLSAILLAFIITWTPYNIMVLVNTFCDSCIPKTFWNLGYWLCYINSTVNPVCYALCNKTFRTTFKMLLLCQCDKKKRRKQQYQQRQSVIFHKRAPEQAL

As to `COc1cc(C(=O)NCCCOc2cccc([C@](O)(C(=O)OCC3CCN(Cc4ccccc4)CC3)c3ccccc3)c2)c(F)cc1CNC[C@H](O)c1ccc(O)c2[nH]c(=O)ccc12` [Compound 32I, (S)-(1-benzylpiperidin-4-yl)methyl 2-(3-(3-(2-fluoro-4-((((R)-2-hydroxy-2-(8-hydroxy-2-oxo-1,2-dihydroquinolin-5-yl)ethyl)amino)methyl)-5-methoxybenzamido)propoxy)phenyl)-2-hydroxy-2-phenylacetate], the IC50 at Human β2 adrenoceptor and on Human M3 receptor was below 0.3 nM each time.

Regarding `O=C(OCC1CCN(Cc2ccccc2)CC1)[C@](O)(c1ccccc1)c1cccc(OCCCCCCNCC(O)c2ccc(O)c3[nH]c(=O)ccc23)c1` (stereo in doubt) [Compound 29, (S)-(1-benzylpiperidin-4-yl)methyl 2-hydroxy-2-(3-((6-(((R)-2-hydroxy-2-(8-hydroxy-2-oxo-1,2-dihydroquinolin-5-yl)ethyl)amino)hexyl)oxy)phenyl)-2-phenylacetate], the IC50 on Human β2 adrenoceptor and at Human M3 receptor was below 0.3 nM each time.

`O=C(N[C@H]1CCN(C(=O)COc2cccc([C@](O)(C(=O)OCC3CCN(Cc4ccccc4)CC3)c3ccccc3)c2)C1)c1ccc(CNC[C@H](O)c2ccc(O)c3[nH]c(=O)ccc23)cc1` [Compound 73, (1-benzylpiperidin-4-yl)methyl (S)-2-hydroxy-2-(3-(2-((S)-3-(4-((((R)-2-hydroxy-2-(8-hydroxy-2-oxo-1,2-dihydroquinolin-5-yl)ethyl)amino)methyl)benzamido)pyrrolidin-1-yl)-2-oxoethoxy)phenyl)-2-phenylacetate]: the IC50 on Human β2 adrenoceptor is below 0.3 nM; at Human M3 receptor it was 0.3 to 3 nM.

Regarding `O=C(c1ccc(CCNC[C@H](O)c2ccc(O)c3[nH]c(=O)ccc23)cc1)N1CCC2(CCCN(C(=O)c3ccc(COc4cccc([C@](O)(C(=O)OCC5CCN(Cc6ccccc6)CC5)c5ccccc5)c4)cc3)C2)CC1` [Compound 122, (1-benzylpiperidin-4-yl)methyl (S)-2-hydroxy-2-(3-((4-(9-(4-(2-(((R)-2-hydroxy-2-(8-hydroxy-2-oxo-1,2-dihydroquinolin-5-yl)ethyl)amino)ethyl)benzoyl)-2,9-diazaspiro[5.5]undecane-2-carbonyl)benzyl)oxy)phenyl)-2-phenylacetate], the IC50 is above 3 nM at Human β2 adrenoceptor and 0.3 to 3 nM on Human M3 receptor.

As to `O=C(COc1cccc([C@](O)(C(=O)OCC2CCN(Cc3ccccc3)CC2)c2ccccc2)c1)N1C[C@@H]2CCN(C(=O)c3ccc(CCNC[C@H](O)c4ccc(O)c5[nH]c(=O)ccc45)cc3)[C@@H]2C1` [Compound 112, (1-benzylpiperidin-4-yl)methyl (S)-2-hydroxy-2-(3-(2-((3aS,6aS)-1-(4-(2-(((R)-2-hydroxy-2-(8-hydroxy-2-oxo-1,2-dihydroquinolin-5-yl)ethyl)amino)ethyl)benzoyl)hexahydropyrrolo[3,4-b]pyrrol-5(1H)-yl)-2-oxoethoxy)phenyl)-2-phenylacetate], the IC50 on Human β2 adrenoceptor was below 0.3 nM; at Human M3 receptor it was 0.3 to 3 nM.

With `O=C(COc1cccc([C@](O)(C(=O)OCC2CCN(Cc3ccccc3)CC2)c2ccccc2)c1)N[C@H]1C[C@H](NC(=O)Cc2ccc(CNC[C@H](O)c3ccc(O)c4[nH]c(=O)ccc34)cc2)C1` [Compound 146, (1-benzylpiperidin-4-yl)methyl (S)-2-hydroxy-2-(3-(2-(((1R,3S)-3-(2-(4-((((R)-2-hydroxy-2-(8-hydroxy-2-oxo-1,2-dihydroquinolin-5-yl)ethyl)amino)methyl)phenyl)acetamido)cyclobutyl)amino)-2-oxoethoxy)phenyl)-2-phenylacetate], the IC50 at Human β2 adrenoceptor is above 3 nM; on Human M3 receptor it was 0.3 to 3 nM.
